# Data published in US11779597B2, “Method of treating Parkinson's and other neurodegenerative diseases” (Vector Vitale IP LLC, priority 2019, dated 2023).
# Tests used:
# [1] = system: human T-lymphocytes (CD3+); assay: Spontaneous and PHA-induced proliferative activity and activation-induced apoptosis of T-lymphocytes; format: cell-based; design: activation-induced T-cell apoptosis: dose or concentration left out as unconfirmed
# Description: Materials and Methods: Peripheral blood mononuclear cells were isolated from a healthy donor by density gradient centrifugation over Histopaque-1077 (Sigma, USA). Phytohemagglutinin (PHA) (Sigma, USA) was used to activate the proliferative activity of T-lymphocytes. The cells were exposed to the action of both preparations for 48 hours. A stimulatory (with the addition of the drugs as single components) and costimulatory (with the addition of the drugs in combination with PHA) effects were assessed. CD3 phenotypic marker was used to selectively measure proliferative activity of T-lymphocytes. The T-cell proliferative activity was assessed by analyzing the DNA status of CD3+ cells using a flow cytometry technique. The results are presented in the form of a proliferative index, calculated by the following formula: […]
# [2] = system: peritoneal macrophages; assay: Functional profile of peritoneal macrophages in 6-OHDA rat models after prophylactic administration; format: in vivo; conditions: prophylactic i.p.
# Description: Methods: Adult mature rodents were used in the study. […] Before prophylactic administration of the experimental drugs, the animals underwent an open field test to assay their general locomotor activity levels and anxiety. The prophylactic course consisted of 10 daily intraperitoneal injections of the drugs (in the case of combination drug, its components were administered at an interval of 2 hours). After the end of prophylactic course, Parkinson's disease was modelled in the animals. […] Ten days after the last (second) apomorphine test, the animals' behavioral responses were assessed in the open field test followed by euthanasia and analysis of functional (metabolic and phenotypic) profiles of phagocytes of different localization. Thus, the study of the functional profile of phagocytes in rat models of Parkinson's disease was performed on day 28 after the end of the course of prophylactic treatment with the experimental drugs. Resident peritoneal macrophages were isolated from sterile cell suspension of peritoneal exudate; enrichment of the suspension was carried out by 2-hour adhesion. Non-adherent and dead cells were separated by centrifugation. Functional characteristics of circulating phagocytes (monocytes and neutrophils) were evaluated in whole blood taken into a tube containing EDTA used as an anticoagulant. Mononuclear and polymorphonuclear phagocytes were analyzed on a flow cytofluorimeter using a gating method. Phagocytes of microglia were isolated using a Percoll density gradient. To assess the phenotypic profile of phagocytes, expression indices of the pan-phagocytic marker CD14 (co-receptor of the bacterial lipopolysaccharide) and the marker of alternative polarization of phagocytes CD206 (mannose receptor 1) were used. To characterize the metabolic profile, oxidative metabolism and phagocytic activity of microglia as well as the pathway of arginine metabolism were studied using flow cytometry and spectrometric methods respectively. FITC-labeled Staphylococcus aureus Wood 46 was used as the object of phagocytosis. The hemogram parameters were analyzed on the hematological analyzer Particle counter model PCE 210 (ERMA, Japan) adapted for the study of blood cells of rats and mice.
# [3] = system: LPS rat models of Parkinson's disease; assay: Elevated plus maze; format: in vivo
# From the text: Method. The elevated plus maze is a widely used behavioral assay for rodents that makes it possible to assess sedative or anxiogenic effects of agents and to define mechanisms underlying anxiety-related behavior, as well as to evaluate the motor activity of rats and levels of their exploratory activity that may correlate with the data collected in the open field test. Campos A C, et al., Braz J Psychiatry. 2013; 35 Suppl 2:S101-11. doi: 10.1590/1516-4446-2013-1139; Braun A A, et al., Neurobiol Learn Mem. 2012; 97(4):402-8. doi: 10.1016/j.nlm.2012.03.004). Behavior was assessed according to the following main parameters: the total distance travelled, the number of entries into each arm, the time spent in each arm, the total number of entries and percent of entries. […] Throughout the experiment, animals had free access to food and water. Before starting measurements, animals were given time to adapt to new an environment to reduce stress.
# The entire apparatus was elevated 50 cm above the floor. The central part of the junction was a 10 cm square center region where an animal was started facing an open arm. The apparatus was illuminated by two LED bulbs, 60 watts each, hanging at a height of 2 m. An IP camera was used to record the location of rats and scoring was completed later using the MATLAB-based software. The statistical analysis was performed using GraphPad Prism. Significance was set at <0.005. The data collected from the open field were analyzed using One-way ANOVA (Tukey test or Dunnett test) and Unpaired t-test or Mann-Whitney.
# Data analysis and interpretation. The test is based on the natural aversion of rats for open areas and their preference for closed areas of the apparatus. The levels of anxiety in animals are assessed as the total time spent in the open and closed arms. Animals that spend more time in the open arms have lower levels of anxiety compared to animals that prefer closed arms. In addition, like in an open field test, a novel environment in which an animal finds itself evokes conflict between fear and a desire to explore this environment. Therefore, the data collected from these two tests may correlate in the distance travelled and the time spent in the outer and inner perimeter. It is considered normal if during a 5-minute test, animals spend most of their time in the closed arms but also make a few entries to the open arms to explore. Accordingly, an increase in open arm entries is interpreted as a decreased anxiety in the animal. FIG. 51A and FIG. 51B show an example of analysis of a rat trajectory in the experimental arena.
# On the 1st day of the experiment, rats were either operated to model hemi-parkinsonism or sham operated. From the 9th to the 18th day of the experiment, the animals were injected either deuterium-depleted water or the test substance, according to their allocation into groups, for 10 days. On the 8th day of the experiment (before initiation of treatment—apomorphine test I) and on the 21st day of the experiment (after the end of administering the test substance —apomorphine test II) the animals underwent an apomorphine test to analyze the development of hemi-parkinsonism which correlates with the number of destroyed dopaminergic neurons. In addition, a follow-up analysis of fecal water content was carried out, i.e., before the start of treatment on the 8th day after the operation, as well as on the 21st (after the end of treatment) and the 28th day (before autopsy). On the 24th day of the experiment, behavioral tests were carried out in all groups. All animals were weighed before autopsy.
substance,measurement,setting,value
^64Zn-enriched zinc aspartate [^64Zne-asp],activation-induced T-cell apoptosis,[1]; drug used alone,did not have any effect
same,PHA (mitogen)-induced proliferative activity of T-lymphocytes,"[1]; in combination with PHA, 48 hours",stimulatory and costimulatory effects
same,activation-induced T-cell apoptosis,[1]; in combination with the mitogen,significantly decreased
same,spontaneous proliferative activity of CD3+ T-lymphocytes,"[1]; used separately from PHA, 48 hours",dose-dependent weak stimulatory effect
same,CD206 expression level in CD14+ peritoneal phagocytes,[2],further decrease
same,NO synthesis by peritoneal macrophages,[2],prevented an increase
same,arginase activity of peritoneal macrophages,[2],absence of any changes
same,phagocytosis by peritoneal macrophages,[2],prevented an increase
same,NO synthesis by peritoneal macrophages,[2]; listed as zinc-based drug,decrease
same,Number of entries into closed arms,"[3]; LPS + ^64Zn-asp, Gr. V",6.1 ± 8.279
same,Number of entries into open arms,"[3]; LPS + ^64Zn-asp, Gr. V",6.1 ± 8.279
same,Time spent in closed arms,"[3]; LPS + ^64Zn-asp, Gr. V",243.3 ± 54.2 s
same,Time spent in open arms,"[3]; LPS + ^64Zn-asp, Gr. V",17.55 ± 24.48 s
same,"Total distance travelled, cm","[3]; LPS + ^64Zn-asp, Gr. V",396.8 ± 107.7 cm
same,Total number of entries,"[3]; LPS + ^64Zn-asp, Gr. V",13 ± 16.66
same,behavioral parameters in the elevated plus maze (in words),[3]; group V (LPS+^64Zn-asp) versus group IV (LPS),had not produced any effects
same,increase of number of entries,[3]; group V versus group IV (LPS),1.3 times
same,increase of total distance travelled,[3]; group V versus group IV (LPS),1.2 times
